According to US8236810B2, “Substituted 8-aminoalkylthioxanthines, and their use as inhibitors of dipeptidyl peptidase IV” (Sanofi-Aventis Deutschland GmbH, priority 2004, dated 2012):
pIC50: −log10 of the molar value. Counter-ions that a name gives are not always drawn.

Biological target: T1, DPP-IV from porcine kidney (Sus scrofa, UniProt P22411)
T1 construct: DPP-IV from porcine kidney (Sigma Chemical Co, Munich DE); purchased Sigma Chemical Co, Munich DE; host or cells: porcine kidney (tissue-derived)
Experiment: Measurement of the DPP-IV activity (fluorimetric H-Ala-Pro-AFC conversion)
Format: biochemical
Conditions: substrate H-Ala-Pro-AFC 15 μM, DPP-IV 1 mU/ml, Tris/HCl pH 7.4, room temperature
Description: a) Measurement of the DPP-IV Activity:
DPP-IV from porcine kidney (Sigma Chemical Co, Munich DE)
H-Ala-Pro-AFC (Bachem Chemical Co, Weil am Rhein DE)
Dipeptidyl peptidase-IV (DPP-IV) (1 mU/ml, final concentration)
H-Ala-Pro-AFC (15 μM, final concentration) in Tris/HCl (40 mM, pH 7.4), total volume 0.2 ml
The reaction was carried out at room temperature for various times (typically 10 min) and stopped at the end of the reaction by adding 20 μl of ZnCl2(1M). The H-Ala-Pro-AFC conversion was determined fluorimetrically by measuring the emission at 535 nm after excitation at 405 nm. When inhibitors were added, the added buffer volume was adapted so that a total volume of 200 μl was maintained for the assay mixture.
IC50 values for inhibitors were determined by varying the inhibitor concentrations with the stated substrate concentration of 15 μM. Ki and Km values were found by appropriate variation of substrate concentration and inhibitor concentration as described (Dixon, M. and Webb, E. C.(1979) Enzymes, third edition, pp. 47-206, Academic Press). The values for Km, IC50 and Ki were calculated using a commercially available software package (Leatherbarrow, R. J. (1992) GraFit Version 3.0, Erithacus Software Ltd. Staines, U.K.).

T1 sequence (P22411 whole entry): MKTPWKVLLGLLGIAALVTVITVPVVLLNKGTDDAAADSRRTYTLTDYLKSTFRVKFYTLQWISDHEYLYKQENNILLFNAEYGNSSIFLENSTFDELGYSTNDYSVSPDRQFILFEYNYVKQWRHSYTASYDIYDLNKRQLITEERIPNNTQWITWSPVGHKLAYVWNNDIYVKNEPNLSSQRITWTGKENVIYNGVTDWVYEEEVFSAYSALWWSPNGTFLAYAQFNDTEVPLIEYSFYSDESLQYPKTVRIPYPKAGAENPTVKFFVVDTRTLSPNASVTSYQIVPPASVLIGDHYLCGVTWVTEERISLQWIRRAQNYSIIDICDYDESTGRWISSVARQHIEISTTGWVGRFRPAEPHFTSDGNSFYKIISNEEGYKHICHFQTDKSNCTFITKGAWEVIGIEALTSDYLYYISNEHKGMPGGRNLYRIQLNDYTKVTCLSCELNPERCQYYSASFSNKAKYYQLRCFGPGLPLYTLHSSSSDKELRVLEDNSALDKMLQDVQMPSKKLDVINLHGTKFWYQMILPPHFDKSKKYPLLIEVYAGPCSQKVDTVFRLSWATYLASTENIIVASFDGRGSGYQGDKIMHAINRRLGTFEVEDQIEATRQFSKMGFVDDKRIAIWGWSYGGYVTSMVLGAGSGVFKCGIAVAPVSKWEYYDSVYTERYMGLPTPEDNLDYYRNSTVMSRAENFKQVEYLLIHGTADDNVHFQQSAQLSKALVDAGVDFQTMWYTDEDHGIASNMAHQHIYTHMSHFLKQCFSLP

Structure (SMILES) | pIC50
Cn1c(=O)n(CC(=O)c2ccccc2)c(=O)c2c1nc(SC1(CN)CCCC1)n2Cc1ccccc1 [Example 63, 8-(1-Aminomethylcyclopentylsulfanyl)-7-benzyl-3-methyl-1-(2-oxo-2-phenyl-ethyl)-3,7-dihydropurine-2,6-dione trifluoroacetate] | 7.85
CC(C)=CCn1c(SC(C)(C)CN)nc2c1c(=O)n(Cc1nc3cc(F)ccc3s1)c(=O)n2C [Example 19, 8-(2-Amino-1,1-dimethylethylsulfanyl)-1-(5-fluorobenzothiazol-2-ylmethyl) -3-methyl-7-(3-methylbut-2-enyl)-3,7-dihydropurine-2,6-dione] | 7.62
CC(C)=CCn1c(SC2(CN)CCCC2)nc2c1c(=O)n(CC(=O)c1ccccc1)c(=O)n2C [Example 64, 8-(1-Aminomethylcyclopentylsulfanyl)-3-methyl-7-(3-methylbut-2-enyl)-1-(2-oxo-2-phenylethyl)-3,7-dihydropurine-2,6-dione trifluoroacetate] | 8.15
CC(C)=CCn1c(SC(C)(C)CN)nc2c1c(=O)n(Cc1cc(C)on1)c(=O)n2C [Example 21, 8-(2-Amino-1,1-dimethylethylsulfanyl)-3-methyl-7-(3-methylbut-2-enyl)-1-(5-methylisoxazol-3-ylmethyl)-3,7-dihydropurine-2,6-dione hydrochloride] | 6.77
CC(C)=CCn1c(SC(C)(C)CN)nc2c1c(=O)n(CC(=O)c1ccccc1)c(=O)n2C1CC1 [Example 24, 8-(2-Amino-1,1-dimethylethylsulfanyl)-3-cyclopropyl-7-(3-methylbut-2-enyl) -1-(2-oxo-2-phenylethyl)-3,7-dihydropurine-2,6-dione] | 8.03
CC#CCn1c(SC(C)(C)CN)nc2c1c(=O)n(CC(=O)c1ccccc1)c(=O)n2C [Example 26, 8-(2-Amino-1,1-dimethylethylsulfanyl)-7-but-2-ynyl-3-methyl-1-(2-oxo-2-phenylethyl)-3,7-dihydropurine-2,6-dione] | 7.57
CC(C)=CCn1c(SC(C)(C)CN)nc2c1c(=O)n(CC(=O)c1ccccc1Cl)c(=O)n2C [Example 42, 8-(2-Amino-1,1-dimethylethylsulfanyl)-1-[2-(2-chlorophenyl)-2-oxoethyl]-3-methyl-7-(3-methylbut-2-enyl)-3,7-dihydropurine-2,6-dione] | 7.80
CCn1c(=O)n(CC(=O)c2ccccc2)c(=O)c2c1nc(SC(C)(C)CN)n2CC=C(C)C [Example 23, 8-(2-Amino-1,1-dimethylethylsulfanyl)-3-ethyl-7-(3-methylbut-2-enyl)-1-(2-oxo-2-phenylethyl)-3,7-dihydropurine-2,6-dione] | 8.35
CC(C)=CCn1c(SC(C)(C)CN)nc2c1c(=O)[nH]c(=O)n2C [Example 5, 8-(2-Amino-1,1-dimethylethylsulfanyl)-3-methyl-7-(3-methylbut-2-enyl)-3,7-dihydropurine-2,6-dione] | 7.08
CC(C)=CCn1c(SC(C)(C)CN)nc2c1c(=O)n(CC(=O)c1ccccc1)c(=O)n2CC(F)(F)F [Example 36, 8-(2-Amino-1,1-dimethylethylsulfanyl)-7-(3-methylbut-2-enyl)-1-(2-oxo-2-phenylethyl)-3-(2,2,2-trifluoroethyl)-3,7-dihydropurine-2,6-dione] | 7.68
CC(C)=CCn1c(SC(C)(C)CN)nc2c1c(=O)n(CCc1ccccc1)c(=O)n2C1CC1 [Example 25, 8-(2-Amino-1,1-dimethylethylsulfanyl)-3-cyclopropyl-7-(3-methylbut-2-enyl) -1-phenethyl-3,7-dihydropurine-2,6-dione] | 7.32
CC(C)=CCn1c(SCC(C)(C)N)nc2c1c(=O)n(CC(=O)c1ccccc1)c(=O)n2C [Example 10, 8-(2-Amino-2-methylpropylsulfanyl)-3-methyl-7-(3-methylbut-2-enyl)-1-(2-oxo-2-phenylethyl)-3,7-dihydropurine-2,6-dione] | 6.92
CC(C)=CCn1c(SC(C)(C)CN)nc2c1c(=O)n(Cc1nnc(C3CC3)s1)c(=O)n2C [Example 12, 8-(2-Amino-1,1-dimethylethylsulfanyl)-1-(5-cyclopropyl-[1,3,4]thiadiazol-2-ylmethyl)-3-methyl-7-(3-methylbut-2-enyl)-3,7-dihydropurine-2,6-dione] | 7.05
CC(C)=CCn1c(SC(C)(C)CN)nc2c1c(=O)n(CC(=O)c1ccccc1)c(=O)n2C [Example 1, 8-(2-Amino-1,1-dimethylethylsulfanyl)-3-methyl-7-(3-methylbut-2-enyl)-1-(2-oxo-2-phenylethyl)-3,7-dihydropurine-2,6-dione] | 8.77
CC(C)=CCn1c(SCCN)nc2c1c(=O)n(CC(=O)c1ccccc1)c(=O)n2C [Example 3, 8-(2-Aminoethylsulfanyl)-3-methyl-7-(3-methylbut-2-enyl)-1-(2-oxo-2-phenylethyl)-3,7-dihydropurine-2,6-dione] | 7.14
CC(C)=CCn1c(SC(C)(C)CN)nc2c1c(=O)n(CC(=O)c1cccc(Cl)c1)c(=O)n2C [Example 43, 8-(2-Amino-1,1-dimethylethylsulfanyl)-1-[2-(3-chlorophenyl)-2-oxoethyl]-3-methyl-7-(3-methylbut-2-enyl)-3,7-dihydropurine-2,6-dione] | 7.52
